Each structure is given as a SMILES string.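 48-hour exposure; five concentrations; linearly interpolated endpoints. TGI is the concentration that stops growth completely.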

Among the test systems are OVCAR-5 ovarian; NCI-H522 lung; SR leukemia; MDA-MB-231 breast; U251 CNS; DU-145 prostate; HT29 colon; BT-549 breast; PC-3 prostate; EKVX NSCLC; SK-OV-3 ovarian; CAKI-1 renal; UACC-257 melanoma; HS 578T breast; A498 renal; SK-MEL-28 melanoma; HCT-15 colon; ACHN renal; A549 NSCLC; SF-295 CNS.
Holding throughout (assay): growth of human tumour cells (NCI), 48 h

For the compound `O=C(/C=C/c1ccc(O)c(O)c1)OCC(OC(=O)/C=C/c1ccc(O)c(O)c1)C(=O)O` (centres undefined), the TGI in the assay on OVCAR-5 ovarian, with NCI-H522 lung, in the assay on SR leukemia, in the assay on MDA-MB-231 breast, with U251 CNS and with DU-145 prostate was > 100 µM in each case. Moreover, the TGI with HT29 colon, with BT-549 breast, with PC-3 prostate, in the assay with EKVX NSCLC, in the assay on SK-OV-3 ovarian and in the assay with CAKI-1 renal was > 100 µM in each case. Also, the TGI in the assay with UACC-257 melanoma, in the assay on HS 578T breast, in the assay with A498 renal, in the assay on SK-MEL-28 melanoma, with HCT-15 colon and with ACHN renal was > 100 µM throughout. The TGI in the assay on A549 NSCLC and in the assay with SF-295 CNS was > 100 µM each time.

As to `CCOC(=O)/C=C(\C(=O)OCC)n1cc(C)c(=O)n(Cc2cn(CCCCOC(C)=O)nn2)c1=O`, the TGI worked out at 27.1 µM with OVCAR-5 ovarian; 3.01 µM with NCI-H522 lung; 14.5 µM in the assay with SR leukemia; 34.6 µM with MDA-MB-231 breast; 37 µM in the assay on U251 CNS; 37.2 µM with DU-145 prostate. The TGI in the assay on HT29 colon is 21.1 µM; in the assay on BT-549 breast it was 23.1 µM; in the assay on PC-3 prostate, 36.2 µM; in the assay with EKVX NSCLC it was 24.2 µM; in the assay with SK-OV-3 ovarian, > 70.7 µM; in the assay on CAKI-1 renal it was 10.4 µM. In addition, the TGI was 30.5 µM with UACC-257 melanoma; 42.3 µM with HS 578T breast; 33 µM with A498 renal; 31.7 µM with SK-MEL-28 melanoma; > 44.2 µM in the assay with HCT-15 colon; 11.1 µM in the assay on ACHN renal. For the same compound, the values for the TGI in the assay on A549 NSCLC and in the assay with SF-295 CNS were 36.1 µM and 35.5 µM, respectively.

Regarding `O=C(O)c1c2c(cc3c1CC(Cc1ccccc1)C3=O)CCC2` (centres undefined), the TGI in the assay on OVCAR-5 ovarian, in the assay with NCI-H522 lung, in the assay on SR leukemia, in the assay with MDA-MB-231 breast, with U251 CNS and in the assay with DU-145 prostate was > 100 µM each time. Also, the TGI with HT29 colon, in the assay on BT-549 breast, with PC-3 prostate, in the assay on EKVX NSCLC, in the assay with SK-OV-3 ovarian and in the assay with CAKI-1 renal was > 100 µM in each case. Moreover, the TGI in the assay with UACC-257 melanoma, with HS 578T breast, in the assay with A498 renal, with SK-MEL-28 melanoma, in the assay with HCT-15 colon and in the assay with ACHN renal was > 100 µM throughout. The TGI in the assay on A549 NSCLC is 38 µM; with SF-295 CNS it was > 100 µM.

As to `COC1(OC)N=C(N)C2(C#N)C(c3ccccc3)NC3=C(CCC3)C12C#N` (centres undefined), the TGI in the assay on OVCAR-5 ovarian, in the assay on NCI-H522 lung, in the assay on SR leukemia, with MDA-MB-231 breast, with U251 CNS and in the assay on DU-145 prostate was > 100 µM each time. The TGI in the assay on HT29 colon, with BT-549 breast, with PC-3 prostate, with EKVX NSCLC, with SK-OV-3 ovarian and with CAKI-1 renal was > 100 µM in each case. Also, the TGI in the assay with UACC-257 melanoma, in the assay on HS 578T breast, with A498 renal, in the assay on SK-MEL-28 melanoma, in the assay with HCT-15 colon and with ACHN renal was > 100 µM throughout. Moreover, the TGI in the assay on A549 NSCLC and in the assay with SF-295 CNS was > 100 µM throughout.

Regarding `CCOC(=O)c1ccc(N=C/C=C(\Nc2ccc(C(=O)OCC)cc2)C23CC4CC(CC(C4)C2)C3)cc1`, the TGI in the assay on OVCAR-5 ovarian, in the assay with NCI-H522 lung, in the assay with SR leukemia, in the assay with MDA-MB-231 breast, in the assay with U251 CNS and in the assay with DU-145 prostate was > 100 µM throughout. Moreover, the TGI with HT29 colon, with BT-549 breast, in the assay on PC-3 prostate, in the assay on EKVX NSCLC, with SK-OV-3 ovarian and in the assay on CAKI-1 renal was > 100 µM in each case. For the same compound, the TGI in the assay with UACC-257 melanoma, in the assay on HS 578T breast, with A498 renal, in the assay with SK-MEL-28 melanoma, in the assay on HCT-15 colon and in the assay with ACHN renal was > 100 µM in each case. The TGI with A549 NSCLC and in the assay with SF-295 CNS was > 100 µM throughout.

On to `COc1ccc(CC2COc3cc(OC)cc(OC)c3C2=O)cc1` (centres undefined), for which the TGI was 76.4 µM with OVCAR-5 ovarian; 87 µM in the assay on NCI-H522 lung; 43.2 µM in the assay on SR leukemia; > 100 µM with MDA-MB-231 breast; > 100 µM in the assay with U251 CNS; 77.2 µM in the assay on DU-145 prostate. Further, the TGI in the assay with HT29 colon was 40.4 µM; in the assay with BT-549 breast, > 100 µM; with PC-3 prostate, > 100 µM; in the assay on EKVX NSCLC, 77.8 µM; with SK-OV-3 ovarian, 56.6 µM; in the assay with CAKI-1 renal it was 57.1 µM. Besides, the TGI is > 100 µM with UACC-257 melanoma; 87.3 µM in the assay on HS 578T breast; > 100 µM with A498 renal; > 100 µM with SK-MEL-28 melanoma; > 100 µM in the assay with HCT-15 colon; > 100 µM in the assay with ACHN renal. The TGI in the assay with A549 NSCLC was > 100 µM; in the assay on SF-295 CNS, 48.3 µM.

For the compound `C=CCn1c(N)c(C#N)c(C#N)c1CCC`, the TGI in the assay on OVCAR-5 ovarian, in the assay on NCI-H522 lung, with SR leukemia, with MDA-MB-231 breast, in the assay on U251 CNS and in the assay on DU-145 prostate was > 100 µM throughout. In addition, the TGI in the assay on HT29 colon, in the assay with BT-549 breast, with PC-3 prostate, in the assay on EKVX NSCLC, in the assay on SK-OV-3 ovarian and in the assay on CAKI-1 renal was > 100 µM throughout. Moreover, the TGI in the assay with UACC-257 melanoma, with HS 578T breast, in the assay on A498 renal, in the assay on HCT-15 colon, in the assay with ACHN renal and in the assay on A549 NSCLC was > 100 µM each time. The TGI in the assay with SF-295 CNS was > 100 µM.

The values above are taken from PubChem BioAssay (NCI).
